Earlier results in patent US20260225982A1, “NEW METHOD FOR OZONOLYSIS AND REDUCTIVE QUENCHING OF OZONIDES” (P2 SCIENCE, INC., priority 2023, published 2026).

What was measured:
[1] = species and route not given; given in comparison with oral rat LD50 of glyoxal

In the case of `O=CC=O` [Glyoxal], the “oral rat LD50” value (rat; oral) is given as 3300 mg/kg.
In the case of `O=CC(=O)O` [Glyoxylic acid], the “rat LD50” value (rat; in vivo) is listed as 2500 mg/kg.
For `[Cl-].[Na+]` [table salt], the LD50 [1] is given as 3000 mg/kg.
